Assay results from US20100022604A1, “PROPHYLACTIC OR THERAPEUTIC AGENT FOR ALOPECIA” (TAISHO PHARMACEUTICAL CO., LTD., priority 2006, published 2010).

Test system: C57BL mice, shaved dorsal area (hair growth)
Assay: Hair growth stimulatory effect measurement test in shaved mouse model
Type: in vivo
Protocol: Hair Growth Stimulatory Effect Measurement Test in Shaved Mouse Model
Dorsal hair of each of C57BL mice (female, about 7-week old) was shaved, and 200 μL of each of test compounds (90 mM) dissolved into 99% ethanol was applied to the shaved area once a day for 40 days from the day 3 after the shaving. As the evaluated compounds, the compound of the present invention and the compound (GPI-1511) disclosed in International Publication No. WO98/55090 were used. As a control, a group in which 200 μL of the vehicle was applied was used.
A hair growth state of the shaved area of each of 10 to 12 mice of each group was rated every 2 or 3 days after the start of administration by using the following hair growth score criteria.
(Hair Growth Score Criteria)
2=hair growth in less than 30% of shaved area
3=hair growth in 30% or more and less than 60% of shaved area
4=hair growth in 60% or more and less than 90% of shaved area
5=hair growth in 90% or more of shaved area

## COc1ccc(OCc2nc([C@@H]3CCCN3C(=O)C(F)(F)C3(O)CC(C)(C)CC(C)(C)C3)no2)cc1OC [compound of the present invention, 1-[2-((2S)-2-{5-[(3,4-dimethoxyphenoxy)methyl]-1,2,4-oxadiazol-3-yl}pyrrolidin-1-yl)-1,1-difluoro-2-oxoethyl]-3,3,5,5-tetramethylcyclohexanol]
18 μmol topical once a day, from day 19 of administration
  increase in hair growth score from the day 19 of the administration: remarkable
18 μmol topical once a day, over the whole test period
  hair growth score compared to the group with GPI-1511: higher than that of the group with GPI-1511 over the whole test period
female, 18 μmol (200 μL of 90 mM in 99% ethanol) applied to the shaved area once a day for 40 days, score 1-5, FIG. 1
  hair growth score compared to the vehicle (control) group: an increase in hair growth score was exhibited from an early stage
